System: facial skin
Assay: Sensory test of cooling sensation, alcohol-free face lotion, 19 trained panelists
Type: in vivo, human
Details: 0.3% in alcohol-free face lotion
Experimental: A sensory test was carried out with a group of 19 trained panelists in order to evaluate the performance of the coolant composition according to the present invention of Example 2 consisting of 15% l-menthyl l-lactate, 57.6% racemic neomenthol, 21.8% racemic menthol, 4.8% racemic neoisomenthol and 0.8% racemic isomenthol) for topical applications.
The cooling sensation of the coolant composition of Example 2 was tested in direct comparison to l-menthyl l-lactate. The mixture according to Example 2 and l-menthyl l-lactate were separately incorporated into samples of an alcohol-free face lotion at a level of 0.3%, based on the total weight of the face lotion.
The presented data are average values. The overall cooling sensation was rated on a scale of 1 to 5 (1=very weak; 5=very strong).

SMILES: CC(C)[C@@H]1CC[C@@H](C)C[C@H]1OC(=O)[C@H](C)O [I-menthyl I-lactate, l-menthyl l-lactate]
- How long does the cooling sensation last ? (average): about 9 minutes
- When does the cooling sensation become noticeable? (average): after 1 minute
- Overall cooling sensation (facial skin) (average, scale of 1 to 5 (1=very weak; 5=very strong)): 2.4
- Was the cooling sensation pleasant ? yes (share of panelists answering yes): yes: 73.7%

Reference: patent publication US20080085247A1, “Composition of Menthyl Lactate and a Mixture of Menthol Isomers” (SYMRISE GMBH & CO. KG, priority 2004, published 2008)
